The test system of assay [1] is MCF-7 cells. The experiment in a line: Epifluorescence microscopy, triple staining MDC / annexin V-FITC / propidium iodide. Type of assay: cell-based, human. The following applies: Bp4eT 10 or 100 nM 72 h, rapamycin 1 nM 30 min. The procedure: Markers used to assess autophagy/apoptosis/necrosis in MCF-7 cells and changes of lysosomal and mitochondrial morphology were observed using an Eclipse Ti inverted epifluorescence microscope (Nikon, Tokyo, Japan), that was equipped with a cooled digital camera Zyla 5.5 sCMOS (Andor Technology, Belfast, UK), and NIS-Elements C 4.1 software (Laboratory Imaging, Prague, Czech Republic). The MCF-7 cells were seeded in 6-well plates with cover slips on the bottom at a density of 150,000 cells/well and incubated as described above in the presence or absence of 10 or 100 nM Bp4eT.
To assess the mechanism of cellular death after incubation with Bp4eT, triple staining with monodansyl cadaverine (MDC; 50 μM; λex = 390 nm; λem = 455 nm; Sigma-Aldrich), annexin V-FITC (5 μL/mL; λex = 495 nm; λem = 519 nm; Invitrogen, Carlsbad, CA, USA), and propidium iodide (5 μg/mL; λex = 560 nm; λem = 630 nm) was used. MDC is a marker of autophagosomes and lysosomes and results in blue fluorescence. As a positive control for autophagy, MCF-7 cells were incubated with 1 nM rapamycin (Sigma-Aldrich) for 30 min/37°C, which is an established inducer of autophagy. Annexin V has high affinity to phosphatidylserine, which is translocated to the surface of both early- and late-stage apoptotic cells. […]

Assay [2] concerns LC3-II. Put plainly: Western blot and densitometry of LC3-I/II (autophagy). Type of assay: cell-based, human. The following applies: for densitometry WB, relative to NT = 1: single blot. From the text: Established protocols were used to prepare cell lysates and perform immunoblot analysis. Primary antibodies used include: rabbit LC3 (Cat. #: MBPM036; 1:2,000) from Abacus (Brisbane, Australia) and mouse β-actin (Cat. #: A1978, 1:10,000) from Sigma-Aldrich. The following secondary antibodies were utilized: horseradish peroxidase (HRP)-conjugated anti-rabbit (Cat. #: A6154, […]) and anti-mouse (Cat. #: A4416, 1:10,000) antibodies from Sigma-Aldrich. To ensure equal loading of proteins, membranes were probed for β-actin.

The mark [3] stands for this setting: Supplementary Fig 2, 5uM (5M [sic] for Bp4eT).
[4] abbreviates: Supplementary Fig 2, Baf+, 10nM.
Where [5] appears, read: Supplementary Fig 2, Baf+, 100nM.
[6] abbreviates: Supplementary Fig 2, Baf+, 5uM (5M [sic] for Bp4eT).

Where “and” joins values, the source holds several entries; their conditions need not be identical. Equal values may be shown once.

With `CCNC(=S)NN=C(c1ccccc1)c1ccccn1` [Bp4eT, 2-benzoylpyridine 4-ethyl-3-thiosemicarbazone], the “Staining for autophagy/apoptosis/necrosis (MDC, annexin V-FITC, propidium iodide)” value in assay [1] is given as “dose-dependent increase in the number of green annexin V-stained cell membranes or bodies”. Besides, in assay [2] (24 h/37°C, MCF-7, agent at all concentrations (10 nM– 5 μM), Baf A1 100 nM), the “LC3II expression with Baf A1 relative to Baf A1 and control” value is listed as “did not lead to a significant (p > 0.05) increase”. Also, the “LC3-II levels upon co-incubation with Baf A1, compared to Baf A1 alone” value in assay [2] (72 h/37°C, MCF-7, Baf A1 100 nM, Bp4eT 10 and 100 nM, Dp44mT 100 nM) was “significant (p < 0.001–0.05) suppression”. Besides, the “densitometry WB, relative to NT = 1, Average” value in assay [2] (Fig 7E, 10nM) is recorded as 6.247; in assay [2] (Fig 7E, 100nM), 6.003; in assay [2] (Supplementary Fig 2, 10nM), 1.7596; in assay [2] (Supplementary Fig 2, 100nM), 0.8507; in assay [2] (setting [3]), 0.7357; in assay [2] (setting [4]), 143.432. Besides, the results for the “densitometry WB, relative to NT = 1, Average” value in assay [2] (setting [5]) and in assay [2] (setting [6]) were 74.7567 and 159.207, respectively. In addition, the “densitometry WB, relative to NT = 1” value in assay [2] (Fig 7E, 10nM) is 4.981 and 5.294 and 8.4664; in assay [2] (setting [3]) it was 0.9358 and 0.7729 and 0.4982; in assay [2] (setting [4]), 159.536 and 131.647 and 139.114; in assay [2] (setting [5]), 63.4737 and 60.9216 and 99.8746; in assay [2] (setting [6]) it was 188.04 and 116.854 and 172.727. Moreover, the “LC3-II levels compared to the control” value in assay [2] (agent alone, 72 h/37°C, MCF-7, Bp4eT 10 and 100 nM, Dp44mT 100 nM, Baf A1 100 nM) is “slight, but significant (p < 0.05) increase”.

These data come from article PMC4604124, “In Vitro Characterization of the Pharmacological Properties of the Anti-Cancer Chelator, Bp4eT, and Its Phase I Metabolites” (PLoS ONE, 2015).
